# Calls of active or inactive are those of the source.
# Tests used:
# Major prion protein = Major prion protein (Homo sapiens, UniProt P04156); format: functional, cell-based
# cells [1] = assay: cells
# cells [2] = format: functional, cell-based
# [3] = target: T1, Nuclear receptor subfamily 0 group B member 1 (Homo sapiens, UniProt P51843); format: functional, cell-based;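 also: HEK293T cells transfected with SF-1 and DAX-1 plus StAR promoter luciferase reporter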
# T1 sequence (P51843 whole entry): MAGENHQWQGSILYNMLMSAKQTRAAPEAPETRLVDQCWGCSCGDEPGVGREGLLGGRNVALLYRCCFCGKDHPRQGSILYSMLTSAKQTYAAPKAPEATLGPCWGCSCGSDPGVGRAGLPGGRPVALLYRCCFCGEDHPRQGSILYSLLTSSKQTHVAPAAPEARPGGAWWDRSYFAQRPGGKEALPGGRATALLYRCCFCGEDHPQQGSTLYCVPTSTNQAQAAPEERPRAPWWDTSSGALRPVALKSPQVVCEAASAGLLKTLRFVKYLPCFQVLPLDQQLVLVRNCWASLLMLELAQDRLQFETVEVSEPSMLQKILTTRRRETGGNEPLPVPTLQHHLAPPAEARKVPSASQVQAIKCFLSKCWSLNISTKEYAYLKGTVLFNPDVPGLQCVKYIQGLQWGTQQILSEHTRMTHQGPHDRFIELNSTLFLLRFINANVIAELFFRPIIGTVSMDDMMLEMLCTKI
# cells [4] = format: functional, cell-based; remark: listed apart in the source
# [5] = Trypanosoma cruzi growth suppression in host cells – NIH3T3 host cells, beta-gal luminescence, confirmation (AID 2044); format: functional, cell-based;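 also: intracellular parasites grown in NIH/3T3 mouse fibroblasts as host cells; luminescent beta-galactosidase reporter signal from transgenic T. cruzi replicating inside host cells; inhibitors lower the luminescence signal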
# cells [6] = format: functional, cell-based; remark: listed apart in the source
# [7] = NIH3T3 cell viability loss – ATP luminescence, mouse fibroblasts, counter-screen, dose response (AID 2010); format: functional, cell-based;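 also: cells exposed to compound for about 90 hours before reading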
# [8] = target: T2, Short transient receptor potential channel 4 (Mus musculus, UniProt Q9QUQ5); assay: block of DAMGO-driven TRPC4 calcium entry – cell-based, HEK293 TRPC4/mu-opioid, Fluo-4 calcium, dose response (AID 434942); format: functional;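 also: potency of inhibitors blocking the TRPC4 calcium response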
# T2 sequence (Q9QUQ5 whole entry): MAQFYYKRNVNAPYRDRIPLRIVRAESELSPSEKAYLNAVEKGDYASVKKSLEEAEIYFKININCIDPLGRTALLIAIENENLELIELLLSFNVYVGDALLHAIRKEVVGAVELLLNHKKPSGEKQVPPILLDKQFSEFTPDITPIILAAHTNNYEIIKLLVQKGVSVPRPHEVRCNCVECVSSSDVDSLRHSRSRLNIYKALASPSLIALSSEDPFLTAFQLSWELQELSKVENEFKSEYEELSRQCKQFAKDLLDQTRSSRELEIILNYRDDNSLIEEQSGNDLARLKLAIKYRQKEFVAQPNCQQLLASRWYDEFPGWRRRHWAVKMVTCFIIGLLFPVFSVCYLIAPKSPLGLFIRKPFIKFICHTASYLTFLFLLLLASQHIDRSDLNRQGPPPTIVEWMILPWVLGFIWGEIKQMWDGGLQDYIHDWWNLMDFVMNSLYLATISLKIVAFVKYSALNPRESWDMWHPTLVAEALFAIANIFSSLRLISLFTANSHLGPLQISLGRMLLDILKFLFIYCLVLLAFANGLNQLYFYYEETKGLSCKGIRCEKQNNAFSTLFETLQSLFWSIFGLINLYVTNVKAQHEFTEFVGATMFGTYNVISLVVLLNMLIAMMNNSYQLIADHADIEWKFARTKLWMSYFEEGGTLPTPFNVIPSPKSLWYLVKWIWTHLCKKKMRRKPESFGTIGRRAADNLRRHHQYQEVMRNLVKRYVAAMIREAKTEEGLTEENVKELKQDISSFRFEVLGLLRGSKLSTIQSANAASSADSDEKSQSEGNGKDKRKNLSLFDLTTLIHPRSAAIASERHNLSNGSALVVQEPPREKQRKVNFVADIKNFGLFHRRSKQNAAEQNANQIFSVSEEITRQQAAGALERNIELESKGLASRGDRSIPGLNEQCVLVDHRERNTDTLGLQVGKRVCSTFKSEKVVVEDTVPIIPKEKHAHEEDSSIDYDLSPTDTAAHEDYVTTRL
# INS1 = assay: INS-1E survival protection against cytokine death – cell-based, luminescence, retest, dose response (AID 449756); format: functional; conditions: Rattus norvegicus, INS1;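 also: cell death triggered by IL-1 beta plus TNF-alpha plus IFN-gamma mixture; protective hits raise ATP signal compared with cytokine alone wells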
# [9] = acridine orange displacement from DNA – biochemical, fluorescence polarization, cherry-pick, artefact control for RAD54 inhibitor project, dose response (AID 651673); format: functional
# [10] = target: T3, DNA repair and recombination protein RAD54-like (Homo sapiens, UniProt Q92698); assay: RAD54 Holliday junction migration blockers – biochemical, fluorescence, cherry-picked samples, dose series, confirmation (AID 651657); format: functional
# T3 sequence (Q92698 whole entry): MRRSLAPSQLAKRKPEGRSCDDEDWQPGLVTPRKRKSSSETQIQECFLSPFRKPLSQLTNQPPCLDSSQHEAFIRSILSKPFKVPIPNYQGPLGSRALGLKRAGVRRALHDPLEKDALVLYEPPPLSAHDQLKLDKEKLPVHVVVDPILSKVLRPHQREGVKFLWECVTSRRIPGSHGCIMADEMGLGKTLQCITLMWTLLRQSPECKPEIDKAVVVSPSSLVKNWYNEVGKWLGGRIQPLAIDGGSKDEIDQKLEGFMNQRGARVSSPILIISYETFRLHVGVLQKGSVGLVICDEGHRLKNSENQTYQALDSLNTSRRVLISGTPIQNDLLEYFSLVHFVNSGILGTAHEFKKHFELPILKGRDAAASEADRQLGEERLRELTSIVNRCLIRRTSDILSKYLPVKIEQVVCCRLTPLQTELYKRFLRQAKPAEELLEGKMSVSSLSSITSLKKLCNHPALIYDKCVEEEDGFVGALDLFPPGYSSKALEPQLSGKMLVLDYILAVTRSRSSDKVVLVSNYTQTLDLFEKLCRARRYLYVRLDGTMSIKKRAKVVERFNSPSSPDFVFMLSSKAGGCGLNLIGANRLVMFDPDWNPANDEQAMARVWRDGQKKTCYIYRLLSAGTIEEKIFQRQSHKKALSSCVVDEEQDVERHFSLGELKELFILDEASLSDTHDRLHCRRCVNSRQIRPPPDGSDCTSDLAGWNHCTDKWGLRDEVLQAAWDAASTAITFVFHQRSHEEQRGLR
# [11] = target: SWI/SNF-related matrix-associated actin-dependent regulator of chromatin subfamily A member 2 (Homo sapiens, UniProt P51531); assay: Luminescence-based cell-based high throughput dose response assay to identify activators of the function of SWI/SNF related, matrix associated, actin dependent regulator of chromatin, subfamily a, member 2 (SMARCA2, BRM).; format: functional
# [12] = Counterscreen for activators of the function of SWI/SNF related, matrix associated, actin dependent regulator of chromatin, subfamily a, member 2 (SMARCA2, BRM): Luminescence-based cell-based high throughput dose response assay to identify non-selective compounds using the VP16 reporter assay.; format: functional
# [13] = target: T4, DNA repair protein RAD52 homolog (Homo sapiens, UniProt P43351); format: functional, biochemical
# T4 sequence (P43351 whole entry): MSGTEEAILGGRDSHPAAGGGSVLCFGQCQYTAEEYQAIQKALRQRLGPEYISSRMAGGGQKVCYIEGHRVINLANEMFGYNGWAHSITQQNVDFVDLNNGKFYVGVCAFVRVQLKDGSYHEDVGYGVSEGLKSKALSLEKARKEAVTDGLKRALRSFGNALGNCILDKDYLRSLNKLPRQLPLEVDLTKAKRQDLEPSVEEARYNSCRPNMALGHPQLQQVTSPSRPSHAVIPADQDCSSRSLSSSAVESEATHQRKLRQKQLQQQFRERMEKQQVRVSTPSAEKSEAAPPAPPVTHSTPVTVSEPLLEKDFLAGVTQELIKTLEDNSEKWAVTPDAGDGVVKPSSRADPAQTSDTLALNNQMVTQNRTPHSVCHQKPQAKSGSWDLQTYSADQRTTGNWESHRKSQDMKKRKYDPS
# HEK293 [14] = assay: cells; conditions: Homo sapiens
# HEK293 [15] = assay: cells; conditions: Homo sapiens; remark: listed apart in the source
# Caspase-6 = target: T5, Caspase-6 (Homo sapiens, UniProt P55212); assay: inhibition of CASP6 peptide cleavage – biochemical, VEID-R110 fluorescence, cherry-pick, dose response (AID 720632)
# T5 sequence (P55212 whole entry): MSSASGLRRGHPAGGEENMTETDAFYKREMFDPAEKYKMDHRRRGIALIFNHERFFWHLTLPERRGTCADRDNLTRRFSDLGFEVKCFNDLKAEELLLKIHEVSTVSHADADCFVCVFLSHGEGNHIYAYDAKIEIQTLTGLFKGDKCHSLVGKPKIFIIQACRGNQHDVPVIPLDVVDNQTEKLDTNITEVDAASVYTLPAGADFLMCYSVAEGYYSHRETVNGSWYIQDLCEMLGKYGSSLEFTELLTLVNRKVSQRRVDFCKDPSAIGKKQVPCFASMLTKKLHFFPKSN
# Caspase-7 = Caspase-7 (Homo sapiens, UniProt P55210); assay: caspase-7 enzyme inhibition, selectivity check – biochemical, DEVD-R110 fluorescence, cherry-pick, selectivity assay for caspase-6 inhibitor project, dose response (AID 743295); format: functional
# [16] = Luminescence Cell-Based Dose Response HTS to Identify Inhibitors of 5'UTR Stem-Loop Driven Prion Protein mRNA Translation in H4 Neuroglioblastoma Cells. [Related pubchem assays: 1827 (Project Summary), 1813 (Primary HTS)]; format: functional
# [17] = alpha-synuclein stem-loop luciferase translation blockers – H4 neuroglioma cells, luminescence, confirmation (AID 1988); format: functional, cell-based
# [18] = target: Luciferin 4-monooxygenase (Photinus pyralis, UniProt P08659); assay: inhibition of purified Photinus pyralis luciferase – biochemical, luminescence, dose response (AID 1891)
# [19] = Luminescence Cell-Based Dose Confirmation HTS to Identify Inhibitors of Platelet Dense Granule Release. [Related pubchem assays: 1663 (Primary HTS), 1678 (Summary of Project)]; format: functional
# Protein skinhead-1 = target: T6, Protein skinhead-1 (Caenorhabditis elegans, UniProt P34707); format: functional
# T6 sequence (P34707 whole entry): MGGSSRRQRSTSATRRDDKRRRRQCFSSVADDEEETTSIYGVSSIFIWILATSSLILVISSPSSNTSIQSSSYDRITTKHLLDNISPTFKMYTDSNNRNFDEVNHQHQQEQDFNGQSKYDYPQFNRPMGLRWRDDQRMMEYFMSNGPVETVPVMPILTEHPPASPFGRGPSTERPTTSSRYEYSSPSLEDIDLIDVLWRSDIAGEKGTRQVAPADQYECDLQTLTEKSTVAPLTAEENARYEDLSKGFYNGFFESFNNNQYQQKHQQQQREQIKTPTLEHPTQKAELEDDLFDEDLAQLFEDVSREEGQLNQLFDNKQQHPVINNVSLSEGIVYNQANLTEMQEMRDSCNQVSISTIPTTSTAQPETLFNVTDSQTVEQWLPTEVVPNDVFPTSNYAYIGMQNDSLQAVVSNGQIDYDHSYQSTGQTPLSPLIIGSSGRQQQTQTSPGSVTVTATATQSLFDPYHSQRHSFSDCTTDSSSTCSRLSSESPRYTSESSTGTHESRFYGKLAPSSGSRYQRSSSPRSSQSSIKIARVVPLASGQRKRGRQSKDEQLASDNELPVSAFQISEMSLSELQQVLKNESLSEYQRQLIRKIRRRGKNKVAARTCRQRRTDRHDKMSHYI
# Galanin receptor type 3 = Galanin receptor type 3 (Homo sapiens, UniProt O60755); assay: Fluorescence-based cell-based primary high throughput dose response assay to identify antagonists of the Galanin Receptor 3 (GalR3).; format: functional
# cells [20] = format: functional, cell-based; conditions: HEK-CNG
# [21] = Late stage assay provider results from the probe development effort to identify selective inhibitors of heat shock protein 90 (HSP90): Absorbance-based cell proliferation assay in SKBR3 cells.; format: functional; conditions: SK-BR-3
# [22] = Late stage assay provider results from the probe development effort to identify selective inhibitors of heat shock protein 90 (HSP90): Absorbance-based cell proliferation assay in MCF7 cells.; format: functional
smiles,measurement,setting,value
COC(=O)CSc1nc(-c2ccccc2)nc2ccccc12,IC50,Major prion protein,1.31 µM (active)
same,IC50,cells [1],> 138 µM (inactive)
CC(=O)c1ccc(CCCCCCCCCC(=O)O)s1,IC50,Major prion protein,5.71 µM (active)
same,IC50,cells [1],> 138 µM (inactive)
O=C(/C=C\Nc1ccccc1Br)c1ccc2c(c1)OCO2,IC50,cells [2],> 67.5 µM (inactive)
same,IC50,[3],> 0.0926 µM (active)
OCCCNc1c2ccccc2nc2ccccc12,EC50,cells [4],> 350 µM (not active)
same,EC50,[5],0.266 µM (active)
same,EC50,cells [6],> 350 µM (not active)
same,EC50,[7],7.34 µM (active)
same,EC50,[8],6.68 µM (active)
same,AC50,INS1,2.44 µM (active)
same,AC50,[9],55.2 µM (active)
same,AC50,[10],3.37 µM (active)
same,EC50,[11],> 3.38 µM (active)
same,EC50,[12],> 91.1 µM (inactive)
same,AC50,[13],3.08 µM (active)
same,EC50,HEK293 [14],> 2.21 µM (active)
same,EC50,HEK293 [15],> 59.7 µM (inactive)
O=C(Nc1ccc(S(=O)(=O)Nc2cnc3ccccc3n2)cc1)c1ccc(Cl)c([N+](=O)[O-])c1,AC50,Caspase-6,0.905 µM (active)
same,AC50,Caspase-7,> 70 µM (inactive)
Cc1ccc(N/C=C/C(=O)c2cccs2)cc1,EC50,[16],9.4 µM (active)
same,EC50,[17],9.77 µM (active)
same,EC50,[18],1.17 µM (active)
same,EC50,[19],6.06 µM (active)
same,IC50,Protein skinhead-1,39 µM (active)
same,IC50,cells [2],> 67.5 µM (inactive)
same,IC50,[3],> 0.278 µM (active)
CCOC(=O)c1c(O)nc(C)c(Cl)c1O,IC50,Galanin receptor type 3,> 29.9 µM (inactive)
same,EC50,cells [20],> 29.9 µM (inactive)
N#Cc1cc2cc(OCCc3ccc(F)cc3)ccc2oc1=O,IC50,[21],16.9 µM (inactive)
same,IC50,[22],96.5 µM (inactive)
O=C(NCc1ccco1)c1coc(=O)c(Br)c1,IC50,[21],27.8 µM (inactive)
same,IC50,[22],4.8 µM (active)

# From ChEMBL document CHEMBL1201862, “PubChem BioAssay data set” (2004)
